One assay relates to rat aorta. The assay is described as follows: In vitro activity in rat aorta stimulated by potassium ions. Format: cell-based, rat (male Wistar). The conditions noted are these: 1 h; rat aorta rings, KCl 80 mM stimulation, cumulative doses at 60 minutes intervals. The protocol: Determination of the Vitro Activity in Rat Aorta Stimulated by Potassium Ions
This trial was carried out using isolated organs removed from male Wistar rats weighing 300 to 400 g, kept under a water diet 18 hours before sacrificing.
After quickly sacrificing the animal, the aorta (at the level of the arch of the aorta) is removed and dissected into 2 mm-long rings; the endothelium is removed mechanically. After an equilibration period of 1 hour in a physiological solution consisting of (mM): NaCl 112, KCl 5, KH2 PO4 1, MgSO4 1.2, CaCl2 2.5, NaHCO3 25 and glucose 11.5, the preparations are stimulated with a potassium-rich solution. The latter consists of (mM):NaCl 37, KCl 80, KH2 PO4 1, MgSO4 1.2, CaCl2 2.5, NaHCO3 25 and glucose 11.5. This solution has a pH of 7.4 at 37° C.
After 15 minutes of stabilization, the compounds to be tested are then added (sample volume 0.2 ml) at cumulative doses at 60 minutes intervals. From the relaxation values obtained, it is possible to construct a doseresponse curve, leading to the calculation of an IC50 value (expressed in M).

Assay [1] deals with conscious dogs with renal hypertension. The assay is described as follows: Study in conscious dogs with renal hypertension (oral, mean arterial pressure). It is filed as in vivo, dog (Mongol). Particulars: digestive route. From the text:
Study in Conscious Dogs with Renal Hypertension
Mongol dogs weighing 20 to 25 kg are used. A Silastic® catheter, inserted under anesthesia at the level of the abdominal aorta, left in position permanently, enables the arterial pressure to be determined subsequently in the conscious animal.
Arterial hypertension is induced by a second operation, under anesthesia, consisting in constricting the left renal artery with a clip, decreasing the flow rate therein by approximately 70%, the left kidney is also covered with a latex capsule in order to restrict circulatory compensations; the contralateral kidney is left in position.
The systolic, diastolic and mean arterial pressures are determined with a Statham® P23 pressure sensor attached to the Silastic® catheter and connected to a Gould® "pressure-processor". The compounds are tested in animals which became hypertensive in the conscious state at least one week after the second operation. The arterial pressure is continuously recorded up to 7 hours after the treatment and then at 24 hours.
The compounds to be tested are administered by the digestive route through gastric tubing, in the form of a solution which may be aqueous, aqueous/alcoholic and the like, depending on the solubility of the products.
The doses administered are expressed in mg base per body weight kg.

Assay [2] has as its system conscious spontaneous hypertensive rats (SHR). The assay is described as follows: Short-term studies in conscious spontaneous hypertensive rats (oral, systolic arterial pressure). Format: in vivo, rat (SHR). Here is the method: Short-term Studies in Conscious Spontaneous Hypertensive Rats (SHR)
Male spontaneous hypertensive rats weighing 270 to 320 g, aged 16 to 24 weeks, are anesthetized with ether. A polyethylene catheter is introduced into the femoral artery and moved forward to the level of the tail. The pressure in the femoral artery is recorded with a Statham® P23 sensor, on a Gould® 2400 recorder. The animals are treated at least one hour after the operation. The compounds are administered orally, in the dissolved form. The doses administered are expressed in mg/kg of base. The compounds of the invention were compared with amlodipine and with another 1,4-dihydropyridine derivative reference compound, nifedipine.

For assay [3] the test system is unchanged. The assay is described as follows: Long-term studies in conscious spontaneous hypertensive rats (oral, single daily dose, systolic arterial pressure). It is filed as in vivo, rat (SHR). Particulars: 1 mg/kg/d; for Systolic arterial pressure Δ(mm Hg) 24 h after the last administration of the products, D1: day 1; for Systolic arterial pressure Δ(mm Hg) 24 h after the last administration of the products, D2: day 2; for Systolic arterial pressure Δ(mm Hg) 24 h after the last administration of the products, D3: day 3; for Systolic arterial pressure Δ(mm Hg) 24 h after the last administration of the products, D4: day 4; for Systolic arterial pressure Δ(mm Hg) 24 h after the last administration of the products, D7: day 7. The protocol:
Long-term Studies in Conscious Spontaneous Hypertensive rats (SHR) Male rats weighing 280 to 300 g, aged 16 weeks, are used in this study. The systolic arterial pressure is determined with a Rhema multichannel 8,000® apparatus, according to the indirect method, at the tail of the animal. The compounds to be tested are administered orally, in a single daily dose. Determinations of arterial pressure are carried out each day just before the treatment. Amlodipine was also studied under the same conditions.

Assay [4] addresses T1, dihydropyridine site associated with the calcium slow channel (Rattus norvegicus, UniProt Q02485).
T1 construct: microsomal membrane preparations prepared from skeletal muscle of rat (Wistar) hind limbs; from tissue; host or cells: skeletal muscle of rat (Wistar) hind limbs, microsomal fraction
The assay is described as follows: Affinity for the dihydropyridine binding site, displacement of [3H]-PN 200-110. More on the design: species or system rat (Wistar). Particulars: displacement of [3H]-PN 200-110, microsomal membranes of rat skeletal muscle. The protocol:
Affinity for the Dihydropyridine Binding Site
This study was carried out on microsomal membrane preparations prepared from skeletal muscle of rat (Wistar) hind limbs.
The rats are killed by decapitation. The skeletal muscles are removed and washed in buffer I (20 mM MOPS/KOH pH 7.4, 0.3M sucrose, 1 mM EDTA, 0.1 mM iodoacetamide, 1 μM pepstatin A, 1 mg/l leupeptin and 0.1 μM PMSF). The muscles are then mechanically fragmented, taken up in 4 volumes of buffer I per gramme of tissue and homogenized.
The homogenate is then centrifuged for 10 minutes at 3,200 g, the pellets are removed and the supernatants are then centrifuged for 20 minutes at 15,000 g, and the supernatants are stirred for 15 minutes at 4° C. in buffer I containing 0.6M final KCl and then centrifgued for 45 minutes at 70,000 g.
The pellets are taken up in buffer I and homogenized in a Potter. The homogenates are centrifuged at 100,000 g for 45 minutes and the pellets thereby obtained correspond to the microsomal fraction used for the studies of binding and displacement.
The activity of the product is assessed by the displacement of [^3 H]-PN 200-110, bound specifically to its receptor associated with the calcium slow channel, by increasing concentrations of the test products. The value obtained (K0.5) for each of the products, which represents the concentration of the product displacing 50% of the [^3 H]-PN 200-110, permits calculation of a true dissociation constant (KI): [formula] where [L*] is the concentration of free [^3 H]-PN 200-110 and Kd the dissociation constant at equilibrium of the [^3 H]-PN 200-110 complex, determined by direct binding.
The KI values of the two products are recorded in Table VI

In assay [5] the test system is unanesthetized spontaneously hypertensive rats (SHR). Briefly: Study in unanesthetized spontaneously hypertensive rats (intravenous, systolic blood pressure). It is filed as in vivo, rat (SHR). Particulars: 0.1 mg/kg, intravenous. The protocol: Study in Unanesthetized Spontaneously Hypertensive Rats (SHR)
SHR male rats weighing 280 to 350 g and aged from 18 to 24 weeks are anaesthetized with imalgene® (150 mg/kg i.p.). Two polyethylene catheters are introduced, one into the abdominal aorta for the recording of hemodynamic parameters and the other into the jugular vein for the administration of the products. The catheters are taken through to neck level. The animals are used at least 48 hours after surgical intervention.
The systolic and diastolic abdominal bood pressures are recorded by means of a Statham P23XL transducer on a Gould ES 1000 recorder. The products are administered intravenously in a volume of 0.5 ml/kg. The doses administered of the test compounds are expressed in mg/kg of base. The blood pressure is recorded in continuous fashion up to 6 hours after the treatment.
The changes in systolic blood pressure after treatment are recorded in Table VIII.

T1 sequence (Q02485 whole entry): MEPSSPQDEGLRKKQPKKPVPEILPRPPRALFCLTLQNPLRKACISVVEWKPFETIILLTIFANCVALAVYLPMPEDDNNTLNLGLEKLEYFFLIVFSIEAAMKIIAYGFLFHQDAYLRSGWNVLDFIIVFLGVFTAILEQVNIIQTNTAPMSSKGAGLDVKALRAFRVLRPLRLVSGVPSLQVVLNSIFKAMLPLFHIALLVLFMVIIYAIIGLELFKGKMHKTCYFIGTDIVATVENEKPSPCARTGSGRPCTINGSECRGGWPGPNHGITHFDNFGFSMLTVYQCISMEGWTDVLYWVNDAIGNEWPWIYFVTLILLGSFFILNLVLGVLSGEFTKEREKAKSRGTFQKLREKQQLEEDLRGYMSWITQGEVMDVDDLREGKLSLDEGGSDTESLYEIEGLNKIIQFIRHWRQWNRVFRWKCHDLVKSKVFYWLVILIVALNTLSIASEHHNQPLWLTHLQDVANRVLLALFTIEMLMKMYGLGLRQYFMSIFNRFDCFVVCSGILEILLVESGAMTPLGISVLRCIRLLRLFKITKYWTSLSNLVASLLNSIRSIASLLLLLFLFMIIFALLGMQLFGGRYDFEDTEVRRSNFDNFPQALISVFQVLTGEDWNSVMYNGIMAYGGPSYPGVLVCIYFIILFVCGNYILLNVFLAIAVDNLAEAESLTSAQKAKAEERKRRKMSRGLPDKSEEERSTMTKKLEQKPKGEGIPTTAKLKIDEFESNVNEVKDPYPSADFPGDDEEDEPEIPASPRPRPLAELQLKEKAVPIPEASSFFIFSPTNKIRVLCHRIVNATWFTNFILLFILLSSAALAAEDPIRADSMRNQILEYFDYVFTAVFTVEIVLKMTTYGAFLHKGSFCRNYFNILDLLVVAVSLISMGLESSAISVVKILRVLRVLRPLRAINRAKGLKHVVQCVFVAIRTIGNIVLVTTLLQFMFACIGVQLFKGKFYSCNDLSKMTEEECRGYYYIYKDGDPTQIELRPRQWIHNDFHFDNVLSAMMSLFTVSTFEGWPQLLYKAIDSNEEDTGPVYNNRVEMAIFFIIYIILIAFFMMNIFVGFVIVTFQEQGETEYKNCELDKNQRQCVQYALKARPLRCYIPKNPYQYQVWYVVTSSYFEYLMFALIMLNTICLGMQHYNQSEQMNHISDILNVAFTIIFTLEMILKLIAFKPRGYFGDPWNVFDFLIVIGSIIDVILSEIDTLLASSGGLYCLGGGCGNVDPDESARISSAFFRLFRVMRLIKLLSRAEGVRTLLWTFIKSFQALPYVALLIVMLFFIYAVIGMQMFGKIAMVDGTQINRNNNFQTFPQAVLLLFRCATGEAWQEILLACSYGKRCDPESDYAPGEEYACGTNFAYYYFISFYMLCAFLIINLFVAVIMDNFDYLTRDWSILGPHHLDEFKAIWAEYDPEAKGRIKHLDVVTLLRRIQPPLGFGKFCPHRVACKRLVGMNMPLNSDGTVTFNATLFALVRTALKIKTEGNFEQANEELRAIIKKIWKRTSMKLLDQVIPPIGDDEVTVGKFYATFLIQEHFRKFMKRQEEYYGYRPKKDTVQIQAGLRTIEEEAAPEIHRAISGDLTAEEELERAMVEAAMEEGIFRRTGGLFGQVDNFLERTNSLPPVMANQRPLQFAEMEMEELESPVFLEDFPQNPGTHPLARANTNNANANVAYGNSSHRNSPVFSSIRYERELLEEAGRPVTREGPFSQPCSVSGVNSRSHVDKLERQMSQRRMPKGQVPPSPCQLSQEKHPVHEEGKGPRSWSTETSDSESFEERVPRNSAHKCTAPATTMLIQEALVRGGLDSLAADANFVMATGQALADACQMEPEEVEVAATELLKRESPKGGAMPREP
T1 sequence (P54290 25-945 partner limits assumed): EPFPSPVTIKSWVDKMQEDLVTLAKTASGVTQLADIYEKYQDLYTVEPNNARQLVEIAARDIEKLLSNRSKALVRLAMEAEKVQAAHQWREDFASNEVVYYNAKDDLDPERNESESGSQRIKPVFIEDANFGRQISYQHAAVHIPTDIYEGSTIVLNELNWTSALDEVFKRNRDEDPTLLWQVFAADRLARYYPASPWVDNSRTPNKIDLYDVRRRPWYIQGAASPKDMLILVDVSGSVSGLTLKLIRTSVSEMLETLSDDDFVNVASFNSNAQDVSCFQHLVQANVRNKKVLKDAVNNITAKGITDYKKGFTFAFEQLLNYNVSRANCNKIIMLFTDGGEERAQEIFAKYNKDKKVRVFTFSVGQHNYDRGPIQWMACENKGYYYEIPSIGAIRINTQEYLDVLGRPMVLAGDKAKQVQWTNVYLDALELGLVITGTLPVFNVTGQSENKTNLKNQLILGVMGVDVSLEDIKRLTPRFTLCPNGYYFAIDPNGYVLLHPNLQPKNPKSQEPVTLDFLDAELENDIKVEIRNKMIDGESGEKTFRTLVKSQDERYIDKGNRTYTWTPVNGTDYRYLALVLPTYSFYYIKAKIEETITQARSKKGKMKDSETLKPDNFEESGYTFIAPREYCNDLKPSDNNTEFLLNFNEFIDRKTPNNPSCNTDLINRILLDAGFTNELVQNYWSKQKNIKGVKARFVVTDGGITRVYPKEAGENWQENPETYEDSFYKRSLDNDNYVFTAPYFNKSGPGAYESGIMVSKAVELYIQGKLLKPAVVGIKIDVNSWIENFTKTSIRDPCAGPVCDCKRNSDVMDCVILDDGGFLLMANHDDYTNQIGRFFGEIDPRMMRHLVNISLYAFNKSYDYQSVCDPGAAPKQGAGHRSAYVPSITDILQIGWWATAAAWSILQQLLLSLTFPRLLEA
T1 sequence (P54290 946-1091 partner limits assumed): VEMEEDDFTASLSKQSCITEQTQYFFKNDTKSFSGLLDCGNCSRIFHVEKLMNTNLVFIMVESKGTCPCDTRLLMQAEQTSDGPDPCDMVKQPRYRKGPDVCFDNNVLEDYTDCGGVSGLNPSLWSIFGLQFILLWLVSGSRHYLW
T1 sequence (P54283 whole entry partner): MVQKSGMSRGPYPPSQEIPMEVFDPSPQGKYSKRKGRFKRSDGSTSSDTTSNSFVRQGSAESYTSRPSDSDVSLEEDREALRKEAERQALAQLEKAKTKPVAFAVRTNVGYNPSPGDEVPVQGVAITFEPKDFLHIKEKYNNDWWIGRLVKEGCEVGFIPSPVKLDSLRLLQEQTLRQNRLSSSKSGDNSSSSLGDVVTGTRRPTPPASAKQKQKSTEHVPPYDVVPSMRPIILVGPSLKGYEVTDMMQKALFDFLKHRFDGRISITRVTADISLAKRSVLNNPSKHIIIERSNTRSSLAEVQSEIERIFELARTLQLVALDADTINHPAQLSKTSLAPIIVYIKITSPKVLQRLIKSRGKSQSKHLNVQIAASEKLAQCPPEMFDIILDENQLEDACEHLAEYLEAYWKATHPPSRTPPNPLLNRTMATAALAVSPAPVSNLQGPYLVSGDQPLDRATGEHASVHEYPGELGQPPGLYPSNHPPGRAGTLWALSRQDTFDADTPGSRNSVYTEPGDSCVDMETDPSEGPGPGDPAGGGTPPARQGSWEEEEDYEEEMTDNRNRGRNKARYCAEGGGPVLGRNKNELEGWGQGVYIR
T1 sequence (P97707 whole entry partner): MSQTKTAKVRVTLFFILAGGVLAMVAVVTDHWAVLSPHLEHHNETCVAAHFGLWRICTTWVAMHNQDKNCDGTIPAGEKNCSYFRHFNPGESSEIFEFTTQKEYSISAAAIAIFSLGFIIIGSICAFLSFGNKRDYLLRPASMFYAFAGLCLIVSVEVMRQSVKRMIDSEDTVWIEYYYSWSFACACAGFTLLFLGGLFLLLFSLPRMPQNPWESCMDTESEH

`CCOC(=O)C1=C(COCCOCCN)NC(C)=C(C(=O)OC)C1c1c(F)c(F)c(F)c(F)c1F` (racemic) [EXAMPLE 1, (4R,S)-2-{[2-(2-Aminoethoxy)ethoxy]methyl}-3-ethoxycarbonyl-5-methoxycarbonyl-6-methyl-4-pentafluorophenyl-1,4-dihydropyridine hemifumarate]: the half-maximal inhibitory concentration (IC50) in the assay on rat aorta was 25 nM. In assay [1] (0.5 mg/kg), the “Mean arterial pressure after treatment, Δ mm Hg, 4 h” value is -21 mm Hg; the “Mean arterial pressure after treatment, Δ mm Hg, 7 h” value is reported as -22 mm Hg; the “Mean arterial pressure after treatment, Δ mm Hg, 24 h” value is listed as -15 mm Hg. In assay [1] (1.0 mg/kg), the “Mean arterial pressure after treatment, Δ mm Hg, 4 h” value is recorded as -45 mm Hg; the “Mean arterial pressure after treatment, Δ mm Hg, 7 h” value was -47 mm Hg; the “Mean arterial pressure after treatment, Δ mm Hg, 24 h” value was -46 mm Hg. In addition, in assay [2] (1 mg/kg), the “Systolic arterial pressure after treatment, Δ mm Hg, 4 h” value is recorded as -44 mm Hg; the “Systolic arterial pressure after treatment, Δ mm Hg, 6 h” value is on record as -54 mm Hg; the “Systolic arterial pressure after treatment, Δ mm Hg, 24 h” value is -47 mm Hg. Moreover, in assay [2] (3 mg/kg), the “Systolic arterial pressure after treatment, Δ mm Hg, 4 h” value is on record as -79 mm Hg; the “Systolic arterial pressure after treatment, Δ mm Hg, 6 h” value is -78 mm Hg; the “Systolic arterial pressure after treatment, Δ mm Hg, 24 h” value is reported as -71 mm Hg. Also, in assay [3], the “Systolic arterial pressure Δ(mm Hg) 24 h after the last administration of the products, D1” value (“Systolic arterial pressure Δ(mm Hg) 24 h … D1” for short) is on record as -52 mm Hg; the “Systolic arterial pressure Δ(mm Hg) 24 h after the last administration of the products, D2” value (“Systolic arterial pressure Δ(mm Hg) 24 h … D2” below) is given as -51 mm Hg; the “Systolic arterial pressure Δ(mm Hg) 24 h after the last administration of the products, D3” value is -49 mm Hg; the “Systolic arterial pressure Δ(mm Hg) 24 h after the last administration of the products, D4” value (shortened to “Systolic arterial pressure Δ(mm Hg) 24 h … D4”) is on record as -44 mm Hg. The “Systolic arterial pressure Δ(mm Hg) 24 h after the last administration of the products, D7” value (“Systolic arterial pressure Δ(mm Hg) 24 h … D7” for short) in assay [3] is on record as -46 mm Hg.
In the assay on rat aorta, `CCOC(=O)C1=C(COCCOCCN)NC(C)=C(C(=O)OC)C1c1cccc(Cl)c1Cl` (racemic) [EXAMPLE 6, (4R,S)-2-{[2-(2-Aminoethoxy)ethoxy]methyl}-4-(2,3-dichlorophenyl)-3-ethoxycarbonyl-5-methoxycarbonyl-6-methyl-1,4-dihydropyridine] had an IC50 of 5 nM. In assay [1] (0.5 mg/kg), the “Mean arterial pressure after treatment, Δ mm Hg, 4 h” value was -20 mm Hg; the “Mean arterial pressure after treatment, Δ mm Hg, 7 h” value is on record as -29 mm Hg; the “Mean arterial pressure after treatment, Δ mm Hg, 24 h” value is -11 mm Hg. In assay [1] (1.0 mg/kg), the “Mean arterial pressure after treatment, Δ mm Hg, 4 h” value is -40 mm Hg; the “Mean arterial pressure after treatment, Δ mm Hg, 7 h” value is -44 mm Hg; the “Mean arterial pressure after treatment, Δ mm Hg, 24 h” value is on record as -49 mm Hg. Moreover, in assay [2] (1 mg/kg), the “Systolic arterial pressure after treatment, Δ mm Hg, 4 h” value was -14 mm Hg; the “Systolic arterial pressure after treatment, Δ mm Hg, 6 h” value was -17 mm Hg; the “Systolic arterial pressure after treatment, Δ mm Hg, 24 h” value was -17 mm Hg. For the same compound, in assay [2] (3 mg/kg), the “Systolic arterial pressure after treatment, Δ mm Hg, 4 h” value is given as -52 mm Hg; the “Systolic arterial pressure after treatment, Δ mm Hg, 6 h” value is given as -55 mm Hg; the “Systolic arterial pressure after treatment, Δ mm Hg, 24 h” value is -36 mm Hg. Moreover, in assay [3], the “Systolic arterial pressure Δ(mm Hg) 24 h … D1” value was -22 mm Hg; the “Systolic arterial pressure Δ(mm Hg) 24 h … D2” value is recorded as -18 mm Hg; the “Systolic arterial pressure Δ(mm Hg) 24 h … D4” value is -17 mm Hg; the “Systolic arterial pressure Δ(mm Hg) 24 h … D7” value is -31 mm Hg. The inhibitory constant (Ki) in assay [4] came to 8.2 ± 1.7 nM. The “Systolic blood pressure changes (ΔmmHg) after treatment, 1H 30 min” value in assay [5] (1 h 30 min) is -11 ± 3 mmHg. The “Systolic blood pressure changes (ΔmmHg) after treatment, 3H” value in assay [5] (3 h) is listed as -5 ± 3 mmHg. The “Systolic blood pressure changes (ΔmmHg) after treatment, 6H” value in assay [5] (6 h) is recorded as -5 ± 2 mmHg.
For `CCOC(=O)C1=C(COCCN)NC(C)=C(C(=O)OC)C1c1ccccc1Cl` (centres unmarked) [AMLODIPINE, amlodipine, reference compound], in assay [1] (0.5 mg/kg), the “Mean arterial pressure after treatment, Δ mm Hg, 4 h” value is listed as -28 mm Hg; the “Mean arterial pressure after treatment, Δ mm Hg, 7 h” value is recorded as -20 mm Hg; the “Mean arterial pressure after treatment, Δ mm Hg, 24 h” value is reported as -10 mm Hg. Also, in assay [1] (1.0 mg/kg), the “Mean arterial pressure after treatment, Δ mm Hg, 4 h” value was -45 mm Hg; the “Mean arterial pressure after treatment, Δ mm Hg, 7 h” value is listed as -39 mm Hg; the “Mean arterial pressure after treatment, Δ mm Hg, 24 h” value is listed as -29 mm Hg. Further, in assay [2] (3 mg/kg), the “Systolic arterial pressure after treatment, Δ mm Hg, 4 h” value was -47 mm Hg; the “Systolic arterial pressure after treatment, Δ mm Hg, 6 h” value is given as -46 mm Hg; the “Systolic arterial pressure after treatment, Δ mm Hg, 24 h” value is given as -13 mm Hg. Further, in assay [3], the “Systolic arterial pressure Δ(mm Hg) 24 h … D1” value was -9 mm Hg; the “Systolic arterial pressure Δ(mm Hg) 24 h … D2” value is listed as -8 mm Hg; the “Systolic arterial pressure Δ(mm Hg) 24 h after the last administration of the products, D3” value is recorded as -14 mm Hg; the “Systolic arterial pressure Δ(mm Hg) 24 h … D4” value was -14 mm Hg. Moreover, in assay [3], the “Systolic arterial pressure Δ(mm Hg) 24 h … D7” value was -9 mm Hg.

Source of the values: US4983740A, “Process for 1,4-dihydropyridine compounds” (Adir et Compagnie, priority 1986, dated 1991).
